# Laboratory results published in paper PMC4079055 (The New England journal of medicine, 2014).
# Read-outs that look alike come from different tables or passages of the source.
# Columns and labels:
# [1] = cited from earlier work
# [2] = clinical; settings: human, in vivo
# [3] = test system: MET; settings: cited from earlier work
# [4] = test system: ALK-rearranged NSCLC xenograft; settings: crizotinib-sensitive and crizotinib-resistant tumors; cited from earlier work
# [5] = Phase 1 study of oral ceritinib: safety, dose-limiting toxic events, MTD; assay type: in vivo
# [6] = test system: ALK-rearranged NSCLC; assay: Phase 1 study: antitumor activity; assay type: in vivo, human
# [7] = test system: ALK; settings: enzymatic assays; cited from earlier work
# [8] = at least 400 mg daily, 114 patients with NSCLC
compound,measurement,setting,value
C[C@@H](Oc1cc(-c2cnn(C3CCNCC3)c2)cnc1N)c1c(Cl)ccc(F)c1Cl [crizotinib],Incidence of grade 3 or 4 nausea,[1],1%
same,Patients with drug-related diarrhea of grade 3 or 4,[1]; of 321 patients,0 patients
Cc1cc(Nc2ncc(Cl)c(Nc3ccccc3S(=O)(=O)C(C)C)n2)c(OC(C)C)cc1C1CCNCC1 [Ceritinib],Day by which steady-state levels were achieved,[2],~15 days
same,Increase in Cmax in relation to dose,[2],slightly greater than proportional to the dose
same,half-life,[2]; 750 mg,~40 h
same,Mean (±SD) area under the plasma concentration–time curve over a 24-hour period,[2]; po,"16,500±4750 ng per milliliter per hour"
same,Mean Cmax,[2]; po,800±205 ng per milliliter
same,Time at which Cmax was achieved after receipt of the dose,"[2]; po, 750 mg",approximately 6 hours
same,Inhibition of the kinase activity of MET,[3],does not inhibit
same,Antitumor activity in xenograft models,[4],marked antitumor activity
same,Treatment-related deaths,[5]; all 130 patients,No treatment-related deaths occurred
same,"Any event, grade 3 or 4, suspected to be related","[5]; human, in vivo",64 (49) number of patients with event (percent)
same,"Diarrhea, grade 3 or 4, suspected to be related","[5]; human, in vivo",9 (7) number of patients with event (percent)
same,Dose-limiting toxic events,"[5]; human, in vivo","diarrhea (at a daily dose of ≥600 mg), vomiting (at 750 mg daily), nausea (at 750 mg daily), dehydration (at 600 mg daily), elevated alanine aminotransferase level (at 400 mg daily), and hypophosphatemia (at 400 mg daily)"
same,"Elevated alanine aminotransferase level, grade 3 or 4, suspected to be related","[5]; human, in vivo",27 (21) number of patients with event (percent)
same,"Elevated amylase level, grade 3 or 4, suspected to be related","[5]; human, in vivo",3 (2) number of patients with event (percent)
same,"Elevated aspartate aminotransferase level, grade 3 or 4, suspected to be related","[5]; human, in vivo",14 (11) number of patients with event (percent)
same,"Elevated blood alkaline phosphatase level, grade 3 or 4, suspected to be related","[5]; human, in vivo",3 (2) number of patients with event (percent)
same,"Elevated lipase level, grade 3 or 4, suspected to be related","[5]; human, in vivo",9 (7) number of patients with event (percent)
same,"Fatigue, grade 3 or 4, suspected to be related","[5]; human, in vivo",6 (5) number of patients with event (percent)
same,"Hyperglycemia, grade 3 or 4, suspected to be related","[5]; human, in vivo",3 (2) number of patients with event (percent)
same,"Hypophosphatemia, grade 3 or 4, suspected to be related","[5]; human, in vivo",4 (3) number of patients with event (percent)
same,Incidence of grade 3 or 4 nausea,"[5]; human, in vivo",5%
same,Median duration of treatment interruption,"[5]; human, in vivo",7.3 days
same,"Nausea, grade 3 or 4, suspected to be related","[5]; human, in vivo",7 (5) number of patients with event (percent)
same,Study drug permanently discontinued owing to an adverse event,"[5]; human, in vivo",6%
same,"Vomiting, grade 3 or 4, suspected to be related","[5]; human, in vivo",6 (5) number of patients with event (percent)
same,Cases of interstitial lung disease possibly related to therapy,[5]; in vivo,four
same,Dose-limiting toxic events,[5]; in vivo,"diarrhea, vomiting, dehydration, elevated aminotransferase levels, and hypophosphatemia"
same,Maximum tolerated dose (MTD),"[5]; oral, once daily, dose-escalation phase, 59 patients",750 mg daily
same,Overall response rate,"[6]; 750 mg daily, 78 patients with NSCLC, 95% CI 47 to 70",59%
same,Tumor regression by molecular status,[6]; 19 crizotinib-resistant patients with repeat biopsy,Tumor regression was observed in all the patients
same,Median progression-free survival,"[6]; 50 patients without central nervous system metastases, ≥400 mg daily",7.0 months
same,Patients with confirmed partial response,"[6]; 50 to 300 mg daily, 8 patients with NSCLC",2 patients
same,Median progression-free survival,"[6]; 64 patients with central nervous system metastases at baseline, ≥400 mg daily",6.9 months
same,Median duration of response,"[6]; 66 responders, at least 400 mg daily, 95% CI 6.9 to 11.4",8.2 months
same,Patients with duration of response of 6 months or longer,"[6]; 66 responders, at least 400 mg daily, 95% CI 50 to 74",64%
same,Median progression-free survival,"[6]; 80 patients who had previously received crizotinib, 400 to 750 mg daily, 95% CI 5.3 to 8.8",6.9 months
same,Median progression-free survival,"[6]; 114 patients with NSCLC, at least 400 mg daily, 95% CI 5.6 to 9.5",7.0 months
same,Confirmed complete response,[6]; [8],1%
same,Confirmed partial response,[6]; [8],57%
same,Progressive disease on the first restaging scans,[6]; [8],11%
same,Stable disease,[6]; [8],22%
same,Overall response rate,"[6]; at least 400 mg daily, 114 patients with NSCLC, 95% CI 48 to 67",58%
same,Median overall survival,"[6]; data immature, 72% censored",had not been reached
same,Overall response rate,"[6]; no previous crizotinib, at least 400 mg daily, 34 patients, 95% CI 44 to 78",62%
same,Patients with confirmed responses,[6]; of 7 crizotinib-resistant patients with ALK gene amplification or mutation,6 patients
same,Patients with confirmed responses,[6]; of 12 crizotinib-resistant patients without ALK alteration,7 patients
same,Reduction in tumor burden on computed tomographic scans,"[6]; one patient with crizotinib-resistant disease, after 6 weeks of treatment",52%
same,Responses in untreated central nervous system lesions,[6]; patients who had received crizotinib previously,responses were seen in untreated lesions in the central nervous system
same,Overall response rate,"[6]; previously treated with crizotinib, 400 mg or more daily, 80 patients, 95% CI 45 to 67",56%
same,Overall response rate,"[6]; previously treated with crizotinib, 750 mg daily, 50 patients, 95% CI 41 to 70",56%
same,Potency against ALK relative to crizotinib,[7],20 times
